# According to patent US20050038118A1, “Treatment” (priority 2003, published 2005):
# What was measured:
# human Rhinovirus (HRV) [1] = assay: In vivo Study II: human volunteers pre-treated with CLA, intranasal human Rhinovirus challenge, Jackson Score
# Experimental: The following protocol was used in all of Examples 4 to 10.
# 76 human volunteers suffering from the common cold were used in the study. 43 subjects were administered conjugated linoleic acid (CLA) and the other 33 subjects were given a placebo. The CLA used contained a 40:60 mixture of cis9, trans11: trans10, cis12 isomers.
# The 43 subjects underwent pre-treatment with CLA at a level of 2 g/day for 4 weeks. 33 subjects underwent pre-treatment with placebo (HOSF; high oleic sunflower […]).
# (§1) All subjects were inoculated at day 0 by intranasal exposure to human Rhinovirus (HRV) and the two groups were monitored daily for the next 5 days. The effects of the two types of treatment were determined by using the Jackson Score (validated in severity of symptoms) and the effects of the symptoms on its own on day 0-5.
# Symptoms were assessed using a Jackson Score validated in severity from 0=absent to 3=very severe.
# human Rhinovirus (HRV) [2] = assay: In vivo study: human volunteers pre-treated with CLA, intranasal human Rhinovirus challenge, Jackson Score; conditions: CLA 1.7 g/day for 4 weeks pre-treatment
# Experimental: 45 human volunteers suffering from the common cold were used in the study. 21 subjects were administered conjugated linoleic acid (CLA) and the other 24 subjects were given a placebo.
# The 21 subjects underwent pre-treatment with CLA at a level of 1.7 g/day for 4 weeks. 24 subjects underwent pre-treatment with placebo (HOSF; high oleic sunflower […]).
# as §1
# Symptoms were assessed using a Jackson Score validated in severity from 0=absent to 3=very severe. The following symptoms were rated:
# The primary endpoint for the study was the frequency of clinical colds defined in accordance with the modified Jackson criteria.
# Total symptoms of the individuals were checked in the morning (am) and in the afternoon (pm). The results of the test in the afternoon are shown in FIG. 2 and the results of the test in the morning are shown in FIG. 3; both plots are of Total Symptom Score against number of days. In FIGS. 2 and 3, results for the group of people treated with CLA are shown on the left in grey (Series 1) and for people given the placebo are shown on the right in dark grey (Series 2).
# The symptoms assessed were sneezing, runny nose, obstruction, stuffiness, sore throat, cough, headache, malaise and chilliness. The total symptom score was determined by adding the scores for the symptoms during the 5 day period. FIG. 4 is a graph showing total symptom score and individual symptoms for the CLA group (light grey bars) and the placebo group (dark grey bars).
# [3] = CLA 2 g/day for 4 weeks pre-treatment
substance,measurement,setting,value
conjugated linoleic acid [CLA],reduction in Jackson cold severity versus placebo,human Rhinovirus (HRV) [1]; [3],about 12%
same,reduction in total Jackson score over 5 days versus placebo,human Rhinovirus (HRV) [1]; [3],about 7%
same,average total Jackson score over 5 days,"human Rhinovirus (HRV) [1]; CLA 2 g/day for 4 weeks pre-treatment, AM and PM, five days post inoculation, placebo 9.30",8.72
same,total runny nose score in 5 days,"human Rhinovirus (HRV) [1]; CLA 2 g/day for 4 weeks pre-treatment, ranking 1-3, AM and PM, five days, placebo 2.14",2.025
same,total sneezing score in 5 days,"human Rhinovirus (HRV) [1]; CLA 2 g/day for 4 weeks pre-treatment, ranking 1 to 3, AM and PM, five days, placebo 1.2",0.5
same,total sore throat score for 5 days,"human Rhinovirus (HRV) [1]; CLA 2 g/day for 4 weeks pre-treatment, ranking 1 to 3, AM and PM, five days, placebo 3.1",2.5
same,total symptom score over 5 days,"human Rhinovirus (HRV) [1]; CLA 2 g/day for 4 weeks pre-treatment, sum of symptom scores during 5 day period, placebo 12.1",11.3
same,"Jackson cold severity, average score","human Rhinovirus (HRV) [1]; CLA 2 g/day for 4 weeks pre-treatment, total score (from 10), AM and PM, five days post inoculation, placebo 1.09",0.975
same,volunteers not infected,"human Rhinovirus (HRV) [1]; CLA (40:60 cis9,trans11:trans10,cis12) 2 g/day for 4 weeks pre-treatment, all placebo volunteers infected",Seven out of the 43
same,severity of the common cold (Jackson Score) versus placebo,"human Rhinovirus (HRV) [2]; at day 2 after HRV inoculation, FIG. 1",lower
same,total symptom score (am and pm) versus placebo,"human Rhinovirus (HRV) [2]; day 2 until the end of the study, FIGS. 2 and 3",lower
same,severity of the symptoms assessed separately versus placebo,"human Rhinovirus (HRV) [2]; scores added over 5 day period, FIG. 4",very clearly lower
